Columns and labels:
Thrips [1] = assay: Thrips damage rating on cotton plants (Fibermax cotton variety 960), Example 2; format: in vivo; conditions: 1 = no damage, 5 = dead
From the text: This example illustrates the effect of the compositions from Table 1 for cotton plants planted in soil known to have nematode (Rotylenchulus reniformis) pressure. FIGS. 4 and 5 illustrate the Thrips damage ratings at three and four weeks, respectively, after planting. FIG. 6 illustrates the plant height seven weeks after planting. The cotton plants utilized were commercially available Fibermax cotton variety 960.

Thrips [2] = assay: Thrips damage rating on cotton plants (Delta and Pineland variety 555), Example 1; format: in vivo; conditions: cotton variety 555, 1 = no damage, 5 = plant completely damaged (dead)
From the text: This example illustrates the effect of a composition of the invention on cotton plant damage and plant height for cotton plants planted in soil known to have nematode (Rotylenchulus reniformis) pressure. The cotton plants utilized were commercially available Delta and Pineland variety 555.
The compositions described in Table 1 below were applied either as a seed treatment (Samples B, C, and E-G) or in furrow (Sample D) at the respective application rates set forth in Table 1.

Row | Structure (SMILES) | Thrips Damage Rating (Thrips [1]; 3 weeks after planting) | Thrips Damage Rating (Thrips [1]; 4 weeks after planting) | Thrips Damage Rating (Thrips [2]; 3 weeks after planting) | Thrips Damage Rating (Thrips [2]; 4 weeks after planting)
1 | CNC(=O)O/N=C/C(C)(C)SC [Sample D, aldicarb] | 2.5 | 2.1 | 1.13 | 1.5
2 | O=[N+]([O-])NC1=NCCN1Cc1ccc(Cl)nc1 [E, imidacloprid] | 2.88 | 3 | 2.25 | 2.4
3 | O=[N+]([O-])NC1=NCCN1Cc1ccc(Cl)nc1 [B, imidacloprid] | 2.63 | 2.5 | 2 | 2.3

— US20090099127A1, “Nematicidal Compositions and Methods” (priority 2005, published 2009)
